Reference: EP4328302A1, “SYNTHESIS OF […] P450 MONO[…] A […]-FREE SYSTEM […] VESICLES” (Fraunhofer-Gesellschaft zur Förderung der angewandten …, priority 2022, dated 2024)

Molecular target: T1, CYP3A4 (Homo sapiens, UniProt P08684)
T1 construct: made in house; host or cells: cell-free protein synthesis in translationally active lysates of CHO-K1 or modified CHO (CHO-CPR, CHO-CPR/CYP3A4) cells; plasmid template from Biocat GmbH
Experiment: Luciferase based CYP3A4 activity assay (P450-Glo, Luciferin-IPA turnover) in the microsomal fraction after cell-free synthesis with heme supplementation
Type: biochemical
Experimental: Synthesis of proteins in translationally active lysates derived from cultured Chinese hamster ovary (CHO) cells and its modified variants CHO-CPR and CHO-CPR/CYP3A4 cells, was performed in batch based systems as previously described (Thoring et al. 2016). Accordingly designed plasmids, suitable for CFPS, coding for the CYP of interest, were applied as template. T7 RNA Polymerase, amino acids, an energy regeneration system and other supplements were added to the translationally active lysates with the additional supplementation of 5 µM heme (porcine) (Alfa Aesar Haverhill, Massachusetts, USA) to the reaction and a reaction temperature of 24 °C despite elsewise noted. For the isolation of the microsomes the translation mixture (TM) was centrifuged at 16.000 x g for 10 minutes at 4 °C. […]
For CYP activity measurement,"P450-Glo™ Assays" (Promega, Madison, Wisconsin, USA) were used. CYP1A2 activity was detected by Luciferase-ME turnover (V8772), CYP2B6 was detected by Luciferin-2B6 turnover (V8321) and CYP3A4 was detected by Luciferin-IPA turnover (V9001). […] For response condition adjustments, CYP activities were usually expressed as percentage of the highest CYP activity during the assay. For CYP activity quantification, a standard curve was prepared using beetles luciferin (Promega, Madison, Wisconsin, USA) according to the attached protocol. […]

T1 sequence (P08684 whole entry): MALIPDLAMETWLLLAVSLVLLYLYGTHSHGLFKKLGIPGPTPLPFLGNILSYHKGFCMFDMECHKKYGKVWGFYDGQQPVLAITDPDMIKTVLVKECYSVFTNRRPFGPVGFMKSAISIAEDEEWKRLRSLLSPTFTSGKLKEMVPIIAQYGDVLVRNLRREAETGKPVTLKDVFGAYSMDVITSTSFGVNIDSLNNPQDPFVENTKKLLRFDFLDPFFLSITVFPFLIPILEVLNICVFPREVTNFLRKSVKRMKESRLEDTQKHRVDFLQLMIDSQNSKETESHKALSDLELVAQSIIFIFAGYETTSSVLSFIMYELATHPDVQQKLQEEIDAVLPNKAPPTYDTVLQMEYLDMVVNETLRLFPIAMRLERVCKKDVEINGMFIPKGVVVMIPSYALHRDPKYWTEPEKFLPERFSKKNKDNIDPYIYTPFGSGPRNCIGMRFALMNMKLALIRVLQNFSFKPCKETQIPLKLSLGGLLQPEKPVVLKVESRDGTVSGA

SMILES: C=CC1=C(C)c2cc3[n-]c(cc4[n-]c(cc5nc(cc1n2)C(C)=C5C=C)c(C)c4CCC(=O)O)c(CCC(=O)O)c3C.[Fe+2] [heme]
- CYP3A4 activity compared to the control without supplementation (heme concentration of 5 µM in the cell-free reaction, microsomal fraction (MF), triplicate analysis, highest CYP3A4 activity): more than twofold higher
- reduced activity compared to the 5 µM heme supplemented sample (supplementation of higher concentrations of heme (above 5 µM) to the cell-free reaction, CYP3A4 activity in MF): 60%
